From US20130316965A1, “IDRABI[…] THE TREATMENT OF PULMONARY EMBOLISM AND FOR THE SECONDARY PREVENTION OF VENOUS THRO[…]” (priority 2011, published 2013)

Tests used:
Assay type in all cases: in vivo, human
[1] = tested on: patients with symptomatic pulmonary embolism with or without symptomatic deep venous thrombosis; assay: CASSIOPEA (EFC6034) phase III clinical trial: symptomatic recurrent PE/DVT (efficacy); details: for Hazard ratio, symptomatic recurrent PE/DVT: idrabiotaparinux vs warfarin
Description: Patients with confirmed symptomatic PE with or without acute symptomatic DVT are eligible for this trial. Treatment with a therapeutic dose of any LMWH or UFH or fondaparinux is allowed only within the 36 hours immediately preceding randomization. Randomization is performed as soon as the diagnosis of PE (and DVT if concomitant suspected symptomatic DVT) is confirmed.
(§1) A blinded central and independent adjudication committee (CIAC) assesses PE (and DVT when applicable), all episodes of locally confirmed or doubtful PE/DVT recurrences, clinically relevant bleedings and deaths. Adjudication results are the basis for the final analyses.
Patients in the 3-month stratum have an additional 13-week observational period after cessation of study treatment. Patients in the 6-month stratum have a 13-week up to 26-week observational period.
Injections of SSR126517E (or its placebo) is started 12 h after the last post-randomization enoxaparin administration. SSR126517E (or its placebo) is administered s.c. once-weekly for a period of 3 or 6 months. All patients receive a first 0.5 ml injection (3.0 mg in the SSR126517E group). The following injections are also 0.5 ml, except in patients with severe renal insufficiency (defined as creatinine clearance <30 mL/min), who decrease to a dosage of 0.3 ml (1.8 mg in the SSR126517E group).
The primary efficacy outcome is symptomatic recurrent PE/DVT (fatal or not), as validated by the CIAC, within 99 days for patients from both strata (3- and 6-month treatments).
A secondary efficacy outcome for patients in the 6-month stratum is symptomatic recurrent PE/DVT, as validated by the CIAC, within 190 days.
There are 2 additional efficacy outcomes: • the time to first symptomatic recurrent PE/DVT (fatal or non fatal) within the patient's treatment period, i.e. a combined analysis of the 3-and 6-month strata patients; • the separate components of the efficacy outcomes within 99 days (all patients) and within 190 days (6-month stratum patients only).
The definitions to confirm a suspected symptomatic episode of recurrent PE/DVT are as follows:
Efficacy analyses are performed on the—All-randomized—population (patients with a patient number and an allocated treatment number recorded in the IVRS database).
The secondary efficacy outcome (VTE recurrence within 190 days) for patients in the 6-month stratum is analyzed using the same method and applying the same non-inferiority margin.
Time to first symptomatic recurrent PE/DVT within the patient's study treatment period for all patients is analyzed using Cox's proportional hazards model, stratified on intended treatment duration.

[2] = tested on: patients with symptomatic pulmonary embolism with or without symptomatic deep venous thrombosis; assay: CASSIOPEA (EFC6034) phase III clinical trial: clinically relevant bleeding (safety); details: for Hazard ratio, clinically relevant bleeding: idrabiotaparinux vs warfarin
Source text: According to the instant invention, the term “bleedings” designates any clinically relevant bleeding (i.e. major or clinically relevant non-major hemorrhage).
According to the instant invention, the term “major bleedings” designates any of the following clinical situations: • bleeding associated with a fall in hemoglobin of 2 g per deciliter or more, • bleeding that led to a transfusion of 2 or more units of packed red cells or whole blood (a red cell unit being defined as the quantity of red cells obtained from or corresponding to approximately 500 ml of whole blood), • bleeding that involved a critical organ (intracranial, intraocular, intraspinal, retroperitoneal or pericardial), • bleeding that contributed to death.
as §1
The principal safety outcome is any clinically relevant bleeding as classified by the CIAC (i.e. major bleeding and other clinically relevant non-major bleeding).
Bleeding analyses are also performed on the—All-randomized—population. Other safety analyses are performed on the—All-treated—population.
Rates of clinically relevant bleedings are calculated in each treatment group at 3 months (99 days) and 6 months (190 days) and compared between treatment groups using a Mantel-Haenszel chi-square stratified on intended treatment duration. Cumulative incidences of clinically relevant bleedings during the combined 3-month and 6-month period and up to the end of study are described by treatment group using the Kaplan Meier method.

[3] = tested on: patients with symptomatic pulmonary embolism with or without symptomatic deep venous thrombosis; assay: CASSIOPEA (EFC6034) phase III clinical trial: deaths; details: overall
Source text: as §1

[4] = tested on: patients with symptomatic pulmonary embolism with or without symptomatic deep venous thrombosis; assay: CASSIOPEA (EFC6034) phase III clinical trial: benefit-risk assessment (PE, DVT or major bleeding composite); details: Randomized population
Source text: Tables 13 and 14 show the incidence of pulmonary embolism, deep venous thrombosis or major bleedings (composite endpoint) in the randomized population in the treatment phase (3-month or 6-month treatment with idrabiotaparinux) and up to the end of the study (assessment at 12 months).

[5] = Randomized population in the 6-month stratum
[6] = Randomized population, All patients
[7] = Randomized population, Patients with VKA beyond D99/D190
[8] = Randomized population, Patients with no VKA beyond D99/D190
[9] = Randomized population, or death for which PE could not be ruled out
[10] = combined 3-month and 6-month period
[11] = combined 3-month and 6-month periods, time-to-event analysis (Kaplan-Meier)
[12] = treatment period plus 3 to 6-month post-treatment follow-up (up to end of study)
[13] = Cox proportional hazards model, stratified

CO[C@H]1O[C@H](COS(=O)(=O)O)[C@@H](O[C@@H]2O[C@@H](C(=O)O)[C@@H](O[C@H]3O[C@H](COS(=O)(=O)O)[C@@H](O[C@@H]4O[C@H](C(=O)O)[C@@H](O[C@H]5O[C@H](COS(=O)(=O)O)[C@@H](OC)[C@H](OC)[C@H]5NC(=O)CCCCCNC(=O)CCCC[C@@H]5SC[C@@H]6NC(=O)N[C@@H]65)[C@H](OC)[C@H]4OC)[C@H](OS(=O)(=O)O)[C@H]3OS(=O)(=O)O)[C@H](OC)[C@H]2OC)[C@H](OS(=O)(=O)O)[C@H]1OS(=O)(=O)O [Idrabiotaparinux, idrabiotaparinux]
DVT only within 190 days from randomization: Patients with event ([1]; 6-month stratum): 7 (0.6%) n (%) | Non-fatal PE within 190 days from randomization: Patients with event ([1]; 6-month stratum): 9 (0.7%) n (%) | Symptomatic recurrent PE/DVT (fatal or not) from randomization to end of study: Patients with event ([1]; 6-month stratum, All patients): 37 (2.9%) n (%) | Symptomatic recurrent PE/DVT (fatal or not) from randomization to end of study: Patients with event ([1]; 6-month stratum, Patients with VKA beyond D190): 10 (3.2%) n (%) | Symptomatic recurrent PE/DVT (fatal or not) from randomization to end of study: Patients with event ([1]; 6-month stratum, Patients with no VKA beyond D190): 27 (2.8%) n (%) | Reducing the risk of symptomatic recurrent PE/DVT up to Day 190 (non-inferiority) ([1]; 6-month stratum, non-inferiority margin 2.0): at least as effective as warfarin | Fatal PE within 190 days from randomization: Patients with event ([1]; 6-month stratum, or death for which PE could not be ruled out): 13 (1.0%) n (%) | Patients who experienced DVT up to Day 190 ([1]; 6-month stratum, up to Day 190): 0.6% | DVT only up to the end of study: Patients with event ([1]; Randomized population): 10 (0.6%) n (%) | DVT only within 99 days from randomization: Patients with event ([1]; Randomized population): 5 (0.3%) n (%) | Non-fatal PE up to the end of study: Patients with event ([1]; Randomized population): 16 (1.0%) n (%) | Non-fatal PE within 99 days from randomization: Patients with event ([1]; Randomized population): 13 (0.8%) n (%) | Symptomatic recurrent PE/DVT (fatal or not) within 190 days from randomization: Patients with event [1, 5]: 29 (2.3%) n (%) | Symptomatic recurrent PE/DVT within 190 days: Idrabiotaparinux vs. Warfarin odds ratio [1, 5]: 0.80 | Symptomatic recurrent PE/DVT (fatal or not) from D100/D191 to end of study: Patients with event [1, 6]: 9 (0.6%) n (%) | Symptomatic recurrent PE/DVT (fatal or not) from randomization to end of study: Patients with event [1, 6]: 48 (3.0%) n (%) | Symptomatic recurrent PE/DVT within 99 days: Idrabiotaparinux vs. Warfarin odds ratio ([1]; Randomized population, Mantel-Haenszel, stratified on intended treatment duration): 0.79 | Symptomatic recurrent PE/DVT (fatal or not) from D100/D191 to end of study: Patients with event [1, 7]: 4 (1.0%) n (%) | Symptomatic recurrent PE/DVT (fatal or not) from randomization to end of study: Patients with event [1, 7]: 12 (3.1%) n (%) | Symptomatic recurrent PE/DVT (fatal or not) from D100/D191 to end of study: Patients with event [1, 8]: 5 (0.5%) n (%) | Symptomatic recurrent PE/DVT (fatal or not) from randomization to end of study: Patients with event [1, 8]: 36 (3.0%) n (%) | Fatal PE up to the end of study: Patients with event [1, 9]: 22 (1.4%) n (%) | Fatal PE within 99 days from randomization: Patients with event [1, 9]: 16 (1.0%) n (%) | Symptomatic recurrent PE/DVT (fatal or not) within 99 days from randomization: Patients with event ([1]; Randomized population, within 99 days): 34 (2.1%) n (%) | Reducing the risk of symptomatic recurrent PE/DVT up to Day 99 (non-inferiority) ([1]; all randomized population, non-inferiority margin 2.0): at least as effective as warfarin | Hazard ratio, symptomatic recurrent PE/DVT [1, 10]: 0.77 | Cumulative incidence of symptomatic recurrent PE/DVT at Day 99 [1, 11]: 2.2% | Cumulative incidence of symptomatic recurrent PE/DVT at Day 190 [1, 11]: 2.6% | Cumulative incidence rate of symptomatic recurrent PE/DVT at Day 360 [1, 12]: 3.1% | Patients who experienced DVT up to Day 99 ([1]; up to Day 99): 0.3% | Patients who experienced DVT up to the end of study ([1]; up to the end of study): 0.6% | Patients who experienced non-fatal PE up to the end of study ([1]; up to the end of study): 1.0% | Hazard ratio, symptomatic recurrent PE/DVT ([1]; up to the end of the study): 0.49 | Risk reduction in the occurrence of symptomatic recurrent PE/DVT ([1]; up to the end of the study, vs warfarin): 51% | Any clinically relevant bleeding within 190 days: Idrabiotaparinux vs. Warfarin odds ratio ([2]; 6-month stratum): 0.81 | Clinically relevant bleedings up to Day 190 ([2]; 6-month stratum): 6.6% | Fatal bleeding within 190 days from randomization: Patients with event ([2]; 6-month stratum): 7 (0.6%) n (%) | Fatal bleeding within 190 days: Idrabiotaparinux to Warfarin odds ratio (95% CI) ([2]; 6-month stratum): 1.40 (0.44 to 4.42) | Intracranial haemorrhage (fatal or not) within 190 days from randomization: Patients with event ([2]; 6-month stratum): 8 (0.6%) n (%) | Intracranial haemorrhage (fatal or not) within 190 days: Idrabiotaparinux to Warfarin odds ratio (95% CI) ([2]; 6-month stratum): 1.33 (0.46 to 3.85) | Major bleeding within 190 days from randomization: Patients with event ([2]; 6-month stratum): 24 (1.9%) n (%) | Major bleeding within 190 days: Idrabiotaparinux to Warfarin odds ratio (95% CI) ([2]; 6-month stratum): 0.66 (0.39 to 1.11) | Patients who experienced a major bleeding up to Day 190 ([2]; 6-month stratum): 1.9% | Any clinically relevant bleeding within 99 days from randomization: Patients with event ([2]; Randomized population): 72 (4.5%) n (%) | Fatal bleeding within 99 days from randomization: Patients with event ([2]; Randomized population): 3 (0.2%) n (%) | Fatal bleeding within 99 days: Idrabiotaparinux to Warfarin odds ratio (95% CI) ([2]; Randomized population): 0.50 (0.13 to 2.01) | Intracranial haemorrhage (fatal or not) within 99 days from randomization: Patients with event ([2]; Randomized population): 4 (0.3%) n (%) | Intracranial haemorrhage (fatal or not) within 99 days: Idrabiotaparinux to Warfarin odds ratio (95% CI) ([2]; Randomized population): 0.57 (0.17 to 1.96) | Major bleeding within 99 days from randomization: Patients with event ([2]; Randomized population): 20 (1.3%) n (%) | Major bleeding within 99 days: Idrabiotaparinux to Warfarin odds ratio (95% CI) ([2]; Randomized population): 0.51 (0.30 to 0.88) | Any clinically relevant bleeding within 190 days from randomization: Patients with event [2, 5]: 84 (6.6%) n (%) | Any clinically relevant bleeding within 99 days: Idrabiotaparinux vs. Warfarin odds ratio ([2]; Randomized population, Mantel-Haenszel, stratified): 0.67 | Major bleeding within 99 days: Idrabiotaparinux to Warfarin odds ratio (95% CI) ([2]; Randomized population, listed as idrabiotaparinux): 0.51 | Hazard ratio, clinically relevant bleeding [2, 10]: 0.70 | Cumulative incidence of clinically relevant bleeding at Day 99 [2, 11]: 4.6% | Cumulative incidence of clinically relevant bleeding at Day 190 [2, 11]: 6.6% | Cumulative incidence rate of clinically relevant bleeding at Day 360 [2, 12]: 8.3% | Incidence of clinically relevant bleeding up to Day 99 ([2]; up to Day 99): 4.5% | Patients who experienced a major bleeding up to Day 99 ([2]; up to Day 99): 1.3% | Hazard ratio, clinically relevant bleeding ([2]; up to the end of study): 0.79 | Patients who died on study [3]: 5.9% | PE, DVT or major bleeding in the combined 3-month and 6-month period: Idrabiotaparinux vs. Warfarin Odds ratio [4, 13]: 0.66 | PE, DVT or major bleeding up to the end of study: Idrabiotaparinux vs. Warfarin Odds ratio [4, 13]: 0.54 | PE, DVT or major bleeding in the combined 3-month and 6-month period: Patients with event ([4]; composite endpoint): 65 (4.1%) n (%) | PE, DVT or major bleeding up to the end of study: Patients with event ([4]; composite endpoint): 82 (5.1%) n (%)
